Consider five compounds from patent US11179294B2, “Preservative removal from eye drops” (TearClear Corp., priority 2019, dated 2021).

Where a name gives a salt, the structure may show the parent alone.

Common to all, as to format: physicochemical
Data set [1] in a line: Bimatoprost API/BAK uptake drop test through tip loaded with recrystallized stearic acid flakes (Table 8). The method, then: Bimatoprost ophthalmic solution (20 mL) was formulated by combining 0.0027 g of Citric Acid Anhydrous (Alfa Aesar L #X16D073), 0.0536 g of Sodium phosphate dibasic, heptahydrate (Fisher chemical L #187384) and 0.1619 g of Sodium Chloride (Fisher chemical L #177082) to 20 g stock solution (2NB70.1) of 300 ppm Bimatoprost and 50 ppm BAK.
Bimatoprost formulation (3 mL), was placed into a 5 mL dropper bottle. Recrystallized Stearic acid flakes (0.116 g) was loaded into a proprietary testing tip. The tip was then placed on the dropper bottle containing the solution.
In a simulated usage, two drops are dispensed and diluted according to the proper method for HPLC analysis. Additional pairs of drops are dispensed at intervals no less than 1 hour apart. A standard consisting of the starting material is taken and diluted according to the specific HPLC method. Then each pair of drops was analyzed on the HPLC. The uptake is determined by comparing the area counts of the starting solution to the area counts of the drop. Bimatoprost has a similar linear signal range as BAK in this formulation so all data is collected from a single drop test. […] In successive drops, the BAK is not detected (e.g., is undetectable, is below a detectable threshold based on UV absorption, etc.).

Data set [2] in a line: Lifitegrast API uptake drop test through tip loaded with 50/50 polypropylene/stearic acid blend (Table 9). Conditions: 5.0% Lifitegrast formulation, 0.328 g 50/50 blend in tip. The method, then: (§1) A Lifitegrast ophthalmic solution (e.g., Xiidra mimic in the table) was prepared, consisting of 5.0% Lifitegrast (BOC Sciences Lot B19V08071), 2.0% Sodium Phosphate Dibasic Anhydrous (J. T. Baker Lot 0000236665), 0.5% Sodium thiosulfate pentahydrate (Fisher Chemical Lot 181801), and 0.005% BAK Aldrich 12063 (Lot #BCBW4741).
(§2) Three mL of the Lifitegrast formulation was placed into a 5 mL dropper bottle. 50/50 polypropylene/steric acid blend (0.328 g) was loaded into a proprietary testing tip. The tip was then placed on the dropper bottle containing the solution.
(§3) In a simulated usage, two drops are dispensed and diluted according to the proper method for HPLC analysis. Due to the relatively high concentration of Lifitegrast, 2 separate drops tests were done for the active pharmaceutical ingredient and BAK. A standard consisting of the starting material is taken and diluted according to the specific HPLC method. Then each pair of drops was analyzed on the HPLC. The uptake is determined by comparing the area counts of the HPLC peaks of the starting solution to the area counts of the drop.

Data set [3] in a line: Timolol Maleate/Brimonidine tartrate API uptake drop test through tip loaded with 20/80 polypropylene/stearic acid powder (Table 6). Conditions: solution 2NB62, 0.32 g stearic acid/polypropylene powder in tip, HPLC area counts of drops vs starting solution. The method, then:
(§4) A Timolol Maleate/Brimonidine tartrate ophthalmic solution was prepared (e.g., 2NB62, a Combigan analogue, etc) according to Table 5. The following were added to a 500 mL bottle: 2.151 g of Sodium Phosphate dibasic heptahydrate (Fisher Chemical L #187384), 0.432 g of Sodium Phosphate monobasic monohydrate (Fisher Chemical L #188731), 0.505 g of 0.991% BAK solution (Lot 2NB61), 0.202 g of Brimonidine Tartrate (BOC Sciences L #BV19V06171), and 0.681 g of Timolol Maleate (BOC Sciences L #BS19V04062). Ultra-pure water (100.017 g) of was added and stirred on a rotary shaker overnight to dissolve. Three mL of the solution, 2NB62, was placed into a 5 mL dropper bottle. Stearic acid/polypropylene powder (0.32 g) was loaded into a proprietary testing tip. The tip was then placed on the dropper bottle containing the solution.
In a simulated usage, two drops are dispensed and diluted according to the proper method for HPLC analysis. Additional pairs of drops are dispensed at intervals no less than 1 hour (hr) apart. A standard consisting of the starting material is taken and diluted according to the specific HPLC method. Then each individual drop is analyzed on the HPLC. The uptake is determined by comparing the area counts from the HPLC peaks of the starting solution to the area counts of the drop.

Data set [4] in a line: Timolol Maleate/Brimonidine tartrate BAK uptake drop test through tip loaded with 20/80 polypropylene/stearic acid powder (Table 7). Conditions: solution 2NB62 through 20/80 blend tip. The method, then: as §4
In a simulated usage, two drops are dispensed and diluted according to the proper method for HPLC analysis. […] Then each individual drop is analyzed on the HPLC. The uptake is determined by comparing the area counts from the HPLC peaks of the starting solution to the area counts of the drop.
A separate, parallel drop test was performed using the same materials to test BAK uptake. […] In successive drops, the BAK is not detected (e.g., is undetectable, is below a detectable threshold based on UV absorption, etc.).

Data set [5] is described as follows: Lifitegrast BAK uptake drop test through tip loaded with 50/50 polypropylene/stearic acid blend (Table 10). The method, then:
as §1, §2, §3

Where [6] appears, read: 300 ppm Bimatoprost / 50 ppm BAK formulation, 0.116 g recrystallized stearic acid flakes in tip.

With `CCNC(=O)CCC/C=C\C[C@@H]1[C@@H](/C=C/[C@@H](O)CCc2ccccc2)[C@H](O)C[C@@H]1O` [Bimatoprost], the “Bimatoprost concentration after passing through the flakes” value in data set [1] (setting [6]) is “not significantly reduced”.

For the compound `CS(=O)(=O)c1cccc(C[C@H](NC(=O)c2c(Cl)cc3c(c2Cl)CCN(C(=O)c2ccc4ccoc4c2)C3)C(=O)O)c1` [Lifitegrast], the “Lifitegrast passage through the tip” value in data set [2] was “not hindered”.

Take `CC(C)(C)NC[C@H](O)COc1nsnc1N1CCOCC1` [Timolol, Timolol Maleate]: the “API concentration after passing through the powder in the tip” value in data set [3] was “neither the concentration of Timolol nor Brimonidine are significantly affected”.

Take Benzalkonium chloride [BAK]: the “BAK in successive drops” value in data set [4] (drops after the first, UV detection) is “not detected”; in data set [1] (successive drops, recrystallized stearic acid flakes tip), “not detected”. Besides, the “BAK in first drop, share of starting BAK” value in data set [4] (first drop) is “about 5%”. In addition, the “BAK in later drops” value in data set [5] (drops after the first, Lifitegrast formulation through 50/50 blend tip) is reported as “not detectable”. Further, in data set [5] (first drop, Lifitegrast formulation with 0.005% BAK through 50/50 blend tip), the “BAK in first drop” value is given as “only a small amount”. The “BAK after passing through the flakes” value in data set [1] (setting [6]) was “eliminated”.

With Brimonidine Tartrate, in data set [3], the “API concentration after passing through the powder in the tip” value is “neither the concentration of Timolol nor Brimonidine are significantly affected”.
